We go through 19 compounds from PubChem BioAssay AID330 (DTP/NCI, 2004).

Molecules are shown by their SMILES. “And” between values parts separate entries of the source, which are not always exact repeats. Equal entries are not always repeated. Inconclusive results and toxic doses are left out.

The subject of this experiment is P388 leukemia ip, CD2F1 mice, survival T/C. Description: NCI In Vivo Anticancer Drug Screen. Data for tumor model P388 Leukemia (intraperitoneal) in CD2F1 (CDF1) mice. The conditions noted are these: endpoint: median survival time, higher = longer survival. The method in brief: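 Mice carrying the transplanted tumor received test compound or vehicle. Survival was recorded in each group, and the value is the treated-group measurement divided by that of the vehicle-treated control group.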

The mark [1] stands for this setting: dose: 50.0 mg/kg/injection, schedule: Q01DX009 (ip), vehicle: saline.
Setting [2] is: dose: 100.0 mg/kg/injection, schedule: Q01DX009 (ip), vehicle: saline.
Where [3] appears, read: dose: 60.0 mg/kg/injection, schedule: Q01DX005 (ip), vehicle: saline with Tween-80.
The mark [4] stands for this setting: dose: 120.0 mg/kg/injection, schedule: Q01DX005 (ip), vehicle: saline with Tween-80.
Setting [5] is: dose: 240.0 mg/kg/injection, schedule: Q01DX005 (ip), vehicle: saline with Tween-80.
Setting [6] is: dose: 12.5 mg/kg/injection, schedule: Q01DX009 (ip), vehicle: Klucel (hydroxypropylcellulose) (HPC).
[7] abbreviates: dose: 25.0 mg/kg/injection, schedule: Q01DX009 (ip), vehicle: Klucel (hydroxypropylcellulose) (HPC).
[8] abbreviates: dose: 50.0 mg/kg/injection, schedule: Q01DX009 (ip), vehicle: Klucel (hydroxypropylcellulose) (HPC).

As to `O=C1c2ccccc2C(=O)c2c1cn1c2Cc2ccccc2C1`, the T/C is, setting by setting: (dose: 30.0 mg/kg/injection, schedule: Q01DX005 (ip), vehicle: Klucel (hydroxypropylcellulose) (HPC)) 103 % of control and 97 % of control; (dose: 60.0 mg/kg/injection, schedule: Q01DX005 (ip), vehicle: Klucel (hydroxypropylcellulose) (HPC)) 113 % of control and 94 % of control; (dose: 120.0 mg/kg/injection, schedule: Q01DX005 (ip), vehicle: Klucel (hydroxypropylcellulose) (HPC)) 103 % of control and 113 % of control and 96 % of control; (dose: 0.25 ml/mouse/injection, schedule: Q01DX005 (ip), vehicle: other) 107 % of control; (dose: 0.5 ml/mouse/injection, schedule: Q01DX005 (ip), vehicle: other) 106 % of control.
Take `O=C1c2cccc(O)c2C(=O)c2c(OC3OC(CO)C(O)C(O)C3O)cccc21` (stereo unspecified): the T/C was 94 % of control under setting [1]; 93 % of control under setting [2]; 88 % of control (dose: 200.0 mg/kg/injection, schedule: Q01DX009 (ip), vehicle: saline).
As to `COC(=O)CSSCc1ccccc1`, the T/C was 100 % of control (dose: 50.0 mg/kg/injection, schedule: Q01DX005 (ip), vehicle: suspension in saline); 107 % of control (dose: 100.0 mg/kg/injection, schedule: Q01DX005 (ip), vehicle: suspension in saline); 107 % of control (dose: 200.0 mg/kg/injection, schedule: Q01DX005 (ip), vehicle: suspension in saline).
As to `CCCN(CCC)CCCOC(=O)c1ccc2oc3ccc(C(=O)OCCCN(CCC)CCC)cc3c2c1`, the T/C was 103 % of control under setting [1] and 106 % of control under setting [2].
Consider `CC[PH+](CC)CC.[Cl][Au]`, for which the T/C (dose: 1.25 mg/kg/injection, schedule: Q01DX009 (ip), vehicle: Klucel (hydroxypropylcellulose) (HPC)) is 100 % of control; the T/C (dose: 2.5 mg/kg/injection, schedule: Q01DX009 (ip), vehicle: Klucel (hydroxypropylcellulose) (HPC)) was 99 % of control and 121 % of control; the T/C (dose: 5.0 mg/kg/injection, schedule: Q01DX009 (ip), vehicle: Klucel (hydroxypropylcellulose) (HPC)) was 114 % of control (2×) and 123 % of control; the T/C (dose: 10.0 mg/kg/injection, schedule: Q01DX009 (ip), vehicle: Klucel (hydroxypropylcellulose) (HPC)) is 124 % of control.
For the compound `COc1ccc2c(c1)c(-c1cc3ccccc3oc1=O)cn2C(=O)c1ccc(Cl)cc1`, the T/C runs as follows: under setting [3], 105 % of control; under setting [4], 102 % of control; under setting [5], 106 % of control.
On to `CC(C(=O)c1ccc(Cl)cc1)C1(O)C(=O)Nc2ccccc21` (stereo unspecified), for which the T/C runs as follows: under setting [3], 108 % of control; under setting [4], 111 % of control; under setting [5], 94 % of control.
Take `Cc1ccc(SSc2ccc(C(C)(C)C)cc2)cc1`: the T/C (dose: 50.0 mg/kg/injection, schedule: Q01DX005 (ip), vehicle: Klucel (hydroxypropylcellulose) (HPC)) is 97 % of control; the T/C (dose: 100.0 mg/kg/injection, schedule: Q01DX005 (ip), vehicle: Klucel (hydroxypropylcellulose) (HPC)) was 102 % of control; the T/C (dose: 200.0 mg/kg/injection, schedule: Q01DX005 (ip), vehicle: Klucel (hydroxypropylcellulose) (HPC)) is 99 % of control.
On to `O=[N+]([O-])c1ccc(SC(=S)N(c2ccccc2)c2ccccc2)c([N+](=O)[O-])c1`, for which the T/C reads like this: (dose: 6.25 mg/kg/injection, schedule: Q01DX009 (ip), vehicle: Klucel (hydroxypropylcellulose) (HPC)) 104 % of control; under setting [6], 102 % of control; under setting [7], 102 % of control; under setting [8], 102 % of control.
For the compound `O=S(=O)(Cl)C(Cl)(Cl)Cl`, the T/C runs as follows: (dose: 25.0 mg/kg/injection, schedule: Q01DX009 (ip), vehicle: saline sonified) 95 % of control; (dose: 50.0 mg/kg/injection, schedule: Q01DX009 (ip), vehicle: saline sonified) 100 % of control; (dose: 100.0 mg/kg/injection, schedule: Q01DX009 (ip), vehicle: saline sonified) 86 % of control.
In the case of `CCCCCCCCN1COC2CCc3ccccc3C21` (stereo unspecified), the T/C by setting is: (dose: 50.0 mg/kg/injection, schedule: Q01DX005 (ip), vehicle: saline) 100 % of control; (dose: 100.0 mg/kg/injection, schedule: Q01DX005 (ip), vehicle: saline) 101 % of control; (dose: 200.0 mg/kg/injection, schedule: Q01DX005 (ip), vehicle: saline) 100 % of control.
For the compound `CN(C)c1cc2c(nn1)Nc1ccccc1S2`, the T/C is, setting by setting: (dose: 50.0 mg/kg/injection, schedule: Q01DX009 (ip), vehicle: saline with Tween-80) 96 % of control; (dose: 100.0 mg/kg/injection, schedule: Q01DX009 (ip), vehicle: saline with Tween-80) 96 % of control; (dose: 200.0 mg/kg/injection, schedule: Q01DX009 (ip), vehicle: saline with Tween-80) 90 % of control.
For the compound `Clc1ccc(C2SC=Cc3ccccc32)cc1` (stereo unspecified), the T/C is, setting by setting: under setting [6], 105 % of control and 113 % of control; under setting [7], 105 % of control and 115 % of control; under setting [8], 104 % of control and 112 % of control; (dose: 100.0 mg/kg/injection, schedule: Q01DX009 (ip), vehicle: Klucel (hydroxypropylcellulose) (HPC)) 116 % of control and 122 % of control; (dose: 200.0 mg/kg/injection, schedule: Q01DX009 (ip), vehicle: Klucel (hydroxypropylcellulose) (HPC)) 122 % of control and 95 % of control.
`O=C(NC(C(=O)O)C1CC(Cl)=NO1)OCC1c2ccccc2-c2ccccc21` (stereo unspecified): the T/C is, setting by setting: (dose: 3.1 mg/kg/injection, schedule: Q04DX003 (ip), vehicle: other) 104 % of control; (dose: 6.2 mg/kg/injection, schedule: Q04DX003 (ip), vehicle: other) 116 % of control; (dose: 12.5 mg/kg/injection, schedule: Q04DX003 (ip), vehicle: other) 120 % of control; (dose: 25.0 mg/kg/injection, schedule: Q04DX003 (ip), vehicle: other) 120 % of control and 123 % of control; (dose: 100.0 mg/kg/injection, schedule: Q04DX003 (ip), vehicle: other) 157 % of control; (dose: 200.0 mg/kg/injection, schedule: Q04DX003 (ip), vehicle: other) 150 % of control.
Consider `CC(C)=CCCC(=O)Cc1nc2nnc(N)n2nc1CC(=O)CCC=C(C)C`, for which the T/C by setting is: (dose: 60.0 mg/kg/injection, schedule: Q01DX005 (ip), vehicle: saline) 100 % of control; (dose: 120.0 mg/kg/injection, schedule: Q01DX005 (ip), vehicle: saline) 98 % of control; (dose: 240.0 mg/kg/injection, schedule: Q01DX005 (ip), vehicle: saline) 104 % of control.
As for `O=c1[nH]nc(-c2ccc(Cl)cc2)c2cc(Cl)c(Cl)cc12`, the T/C is, setting by setting: (dose: 3.12 mg/kg/injection, schedule: Q04DX002 (ip), vehicle: distilled water + Tween-80) 90 % of control; (dose: 6.25 mg/kg/injection, schedule: Q04DX002 (ip), vehicle: distilled water + Tween-80) 96 % of control; (dose: 12.5 mg/kg/injection, schedule: Q04DX002 (ip), vehicle: distilled water + Tween-80) 93 % of control; (dose: 25.0 mg/kg/injection, schedule: Q04DX002 (ip), vehicle: distilled water + Tween-80) 93 % of control; (dose: 50.0 mg/kg/injection, schedule: Q04DX002 (ip), vehicle: distilled water + Tween-80) 90 % of control; (dose: 100.0 mg/kg/injection, schedule: Q04DX002 (ip), vehicle: distilled water + Tween-80) 95 % of control. For the setting “dose: 200.0 mg/kg/injection, schedule: Q04DX002 (ip), vehicle: distilled water + Tween-80”, the T/C was 102 % of control.
Turning to `NC(=S)N/N=C/c1c(Cl)nc2sccn12`, the T/C by setting is: (dose: 100.0 mg/kg/injection, schedule: Q01DX001 (ip), vehicle: Klucel (hydroxypropylcellulose) (HPC)) 92 % of control; (dose: 200.0 mg/kg/injection, schedule: Q01DX001 (ip), vehicle: Klucel (hydroxypropylcellulose) (HPC)) 97 % of control; (dose: 400.0 mg/kg/injection, schedule: Q01DX001 (ip), vehicle: Klucel (hydroxypropylcellulose) (HPC)) 97 % of control.
For `CCCCc1c(C#N)c(=O)n2c(N)c(C(=O)OCC)cnc2c1SC`, the T/C (dose: 3.75 mg/kg/injection, schedule: Q01DX005 (ip), vehicle: saline with Tween-80) was 104 % of control and 108 % of control; the T/C (dose: 7.5 mg/kg/injection, schedule: Q01DX005 (ip), vehicle: saline with Tween-80) was 117 % of control and 120 % of control; the T/C (dose: 15.0 mg/kg/injection, schedule: Q01DX005 (ip), vehicle: saline with Tween-80) is 120 % of control; the T/C under setting [3] is 98 % of control; the T/C under setting [4] is 92 % of control.
As for `CN1C(=O)CNC(=O)c2ccc(Cl)cc21`, the T/C was 108 % of control (dose: 50.0 mg/kg/injection, schedule: Q01DX005 (ip), vehicle: saline with Tween-80); 90 % of control (dose: 100.0 mg/kg/injection, schedule: Q01DX005 (ip), vehicle: saline with Tween-80); 115 % of control (dose: 200.0 mg/kg/injection, schedule: Q01DX005 (ip), vehicle: saline with Tween-80).
